This passage reports IC50 results from patent publication US10227359B2, “Tricyclic heterocycles as bet protein inhibitors” (Incyte Corporation, priority 2014, dated 2019).

A word on the IC50: it is the concentration that inhibits the measured activity by half.

In experiment [1] the test system is KMS.12.BM cell line (human myeloma). Kind of experiment: KMS.12.BM Cell Viability Assay. The note with it: 72 h, KMS.12.BM cells, 3 days, Cell Titer-GLO, read-out: KMS cellular IC50. It counts as cell-based. How it is done:
Example B1: KMS.12.BM Cell Viability Assay
KMS.12.BM cell line (human myeloma) was purchased from JCRB (Osaka, Japan) and maintained in RPMI with 10% FBS culture medium. To measure the cytotoxic activity of the compounds through ATP quantitation, the KMS.12.BM cells are plated in the RPMI culture medium at 5000 cells/well/per 100 μL into a 96-well polystyrene clear black tissue culture plate (Greiner-bio-one through VWR, NJ), in the presence or absence of a concentration range of test compounds. After 3 days, […] Cell Titer-GLO Luminescent (Promega, Madison, Wis.) cell culture agent is added to each well for 10 min. at room temperature to stabilize the luminescent signal. This determines the number of viable cells in culture based on quantitation of the ATP present, which signals the presence of metabolically active cells. Luminescence is measured with the Top Count 384 (Packard Bioscience through Perkin Elmer, Boston, Mass.). Compound inhibition is determined relative to cells cultured with no drug and the IC50 reported as the compound concentration required for 50% cell death.
(Cellular ATP, detected with luciferase, serves as a proxy for viable cell number.)

A further experiment relates to C-myc in KMS.12.BM cells. The experiment in a line: KMS.12.BM C-myc ELISA Assay. The class given is cell-based. The following applies: Homo sapiens, 2 h. How it is done:
KMS.12.BM C-myc ELISA Assay
KMS.12.BM cell line (human myeloma) was purchased from JCRB (Osaka, Japan) and maintained in RPMI with 10% FBS culture medium. To measure the C-myc inhibitory activity of the compounds, the KMS.12.BM cells are plated in the RPMI culture medium at 75000 cells/well/per 200 μL into a 96-well flat bottom polystyrene tissue culture plate (Corning through VWR, NJ), in the presence or absence of a concentration range of test compounds. After 2 h, cells are pelleted and lysed with Cell Extraction Buffer (BioSource, Carlsbad, Calif.) in the presence of protease inhibitors (Life Technologies, Grand Island, N.Y. and Sigma, St Louis, Mo.). Clarified lyses are tested in a C-myc commercial ELISA (Life Technologies, Grand Island, N.Y.). Compound inhibition is determined relative to cells cultured with no drug and the IC50 reported as the compound concentration required for 50% C-myc inhibition.

For `CCS(=O)(=O)N(C)C1CCN(c2nc3ccc(-c4c(C)noc4C)c4c3n2[C@@H](c2ccccn2)CO4)CC1` [Example 23, N-{1-[(4S)-7-(3,5-dimethylisoxazol-4-yl)-4-pyridin-2-yl-4,5-dihydroimidazo[1,5,4-de][1,4]benzoxazin-2-yl]piperidin-4-yl}-N-methylethanesulfonamide], the half-maximal inhibitory concentration (IC50) in experiment [1] is no more than 100 nM; in the experiment on C-myc in KMS.12.BM cells, 100 to 1000 nM.
Turning to `CC(=O)N1CC2CC1CN2c1nc2ccc(-c3c(C)noc3C)c3c2n1[C@@H](c1ccccn1)CO3` (stereo partly drawn) [Example 4, (4S)-2-(5-acetyl-2,5-diazabicyclo[2.2.1]hept-2-yl)-7-(3,5-dimethylisoxazol-4-yl)-4-pyridin-2-yl-4,5-dihydroimidazo[1,5,4-de][1,4]benzoxazine], the IC50 (in experiment [1]; in the experiment on C-myc in KMS.12.BM cells) was no more than 100 nM throughout.
`CCC(=O)N1CCN(c2nc3ccc(-c4c(C)noc4C)c4c3n2[C@@H](c2ccccn2)CO4)C[C@@H]1C` [Example 8, (4S)-7-(3,5-dimethylisoxazol-4-yl)-2-[(3S)-3-methyl-4-propionylpiperazin-1-yl]-4-pyridin-2-yl-4,5-dihydroimidazo[1,5,4-de][1,4]benzoxazine]: the concentration for half-maximal inhibition (IC50) (in experiment [1]; with C-myc in KMS.12.BM cells) was no more than 100 nM each time.
Regarding `CCC(=O)N(C)C1CCN(c2nc3ccc(-c4c(C)noc4C)c4c3n2[C@@H](c2ccccn2)CO4)CC1` [Example 15, N-{1-[(4S)-7-(3,5-dimethylisoxazol-4-yl)-4-pyridin-2-yl-4,5-dihydroimidazo[1,5,4-de][1,4]benzoxazin-2-yl]piperidin-4-yl}-N-methylpropanamide], the IC50 (in experiment [1]; with C-myc in KMS.12.BM cells) was no more than 100 nM in each case.
With `CCCC(=O)N1CCN(c2nc3ccc(-c4c(C)noc4C)c4c3n2[C@@H](c2ccccn2)CO4)CC1` [Example 25, (4S)-2-(4-butyrylpiperazin-1-yl)-7-(3,5-dimethylisoxazol-4-yl)-4-pyridin-2-yl-4,5-dihydroimidazo[1,5,4-de][1,4]benzoxazine], the 50% inhibitory concentration (IC50) (in experiment [1]; in the experiment with C-myc in KMS.12.BM cells) was no more than 100 nM throughout.
Regarding `Cc1noc(C)c1-c1ccc2nc(N3CCC(N(C)C(=O)C(C)C)CC3)n3c2c1OC[C@@H]3c1ccccn1` [Example 17, N-{1-[(4S)-7-(3,5-dimethylisoxazol-4-yl)-4-pyridin-2-yl-4,5-dihydroimidazo[1,5,4-de][1,4]benzoxazin-2-yl]piperidin-4-yl}-N,2-dimethylpropanamide], the IC50 (in experiment [1]; in the experiment with C-myc in KMS.12.BM cells) was no more than 100 nM each time.
As to `Cc1noc(C)c1-c1ccc2nc(N3CCC(N(C)C(=O)C4CC4)CC3)n3c2c1OC[C@@H]3c1ccccn1` [Example 19, N-{1-[(4S)-7-(3,5-dimelhylisoxazol-4-yl)-4-pyridin-2-yl-4,5-dihydroimidazo[1,5,4-de][1,4]benzoxazin-2-yl]piperidin-4-yl}-N-methylcyclopropanecarboxamide], the half-inhibitory concentration (IC50) (in experiment [1]; in the experiment on C-myc in KMS.12.BM cells) was no more than 100 nM in each case.
On to `CC(=O)N1CCN(c2nc3ccc(-c4c(C)noc4C)c4c3n2[C@@H](c2ccccn2)CO4)[C@@H](C)C1` [Example 3, (4S)-2-[(2S)-4-acetyl-2-methylpiperazin-1-yl]-7-(3,5-dimethylisoxazol-4-yl)-4-pyridin-2-yl-4,5-dihydroimidazo[1,5,4-de][1,4]benzoxazine], for which the IC50 (in experiment [1]; in the experiment with C-myc in KMS.12.BM cells) was no more than 100 nM each time.
Consider `Cc1noc(C)c1-c1ccc2nc(N3CCC(NC(=O)C(C)(C)C)CC3)n3c2c1OC[C@@H]3c1ccccn1` [Example 11, N-{1-[(4S)-7-(3,5-dimethylisoxazol-4-yl)-4-pyridin-2-yl-4,5-dihydroimidazo[1,5,4-de][1,4]benzoxazin-2-yl]piperidin-4-yl}-2,2-dimethylpropanamide], for which the IC50 (in experiment [1]; in the experiment with C-myc in KMS.12.BM cells) was no more than 100 nM each time.
On to `CCS(=O)(=O)NC1CCN(c2nc3ccc(-c4c(C)noc4C)c4c3n2[C@@H](c2ccccn2)CO4)CC1` [Example 14, N-{1-[(4S)-7-(3,5-dimethylisoxazol-4-yl)-4-pyridin-2-yl-4,5-dihydroimidazo[1,5,4-de][1,4]benzoxazin-2-yl]piperidin-4-yl}ethanesulfonamide], for which the concentration for half-maximal inhibition (IC50) (in experiment [1]; in the experiment on C-myc in KMS.12.BM cells) was no more than 100 nM throughout.
